This note sets out measurements from US12410457B2, “Use of rosmarinic acid in cell bioproduction” (BRISTOL-MYERS SQUIBB COMPANY, priority 2015, dated 2025).

Assay type in all cases: cell-based, Chinese Hamster
The test system of experiment [1] is aCD137 cells. Description: Screen of antioxidants added to feed media in aCD137 fed-batch cell culture. As to conditions: for VCD %: day 8 (peak VCD), basal media not supplemented; for VCD % / Titer %: normalized to control without antioxidant; for Titer %: final titer harvested day 14. Here is the method:
Following the cell culture process described in Example 1, thirteen novel antioxidants (Table 1) were added to the feed media utilized in aCD137 cell culture. Three antioxidant concentrations were evaluated: 1 mM (Run #1-13), 0.25 mM (Run #17-29), and 0.0625 mM (Run #33-45). The antioxidants were dissolved in either pure ethanol or dimethyl sulfoxide (DMSO) at 50 mM stock concentration and added to feed media M154A1B at the designed final concentrations. The corresponding solvent negative controls were run number 16, 32, and 48. Two traditional antioxidants, ascorbic acid (Run #14, 30, and 46) and reduced glutathione (Run #15, 31, and 47), served as positive controls. The basal media M171IB was not supplemented with antioxidant.
(§1) Cells were cultured either in 50 ml spin tubes with an initial volume of 25 ml and a shaking speed of 300 rpm; or 250 ml shake flasks with an initial volume of 80˜100 ml and a shaking speed of 150 rpm on an orbital shaker with 25 mm throw distance. Temperature for the culture was controlled at constant 37° C. from the beginning of the culture and was shifted to 34° C. when viable cell density reached 10^6 cells/ml (usually on day 6) and CO2 was controlled at 6%.
(§2) A standard fed-batch culture process involved culturing the cells for 14 days with feeding beginning on day 3 at a feeding volume of 3.64% of initial culture volume. All the media used for cultures were chemically defined. Chemically defined feed media M154A1B is an enriched version of feed media F3.2. While the ingredient lists are the same between the two feed media, the concentration of a few of the ingredients is increased. Likewise, chemically defined basal media M17IB is an enriched version of basal media B1. For cultures in 7-liter or 500-liter reactors, dissolved oxygen (DO) was maintained at 50% and pH was controlled between 6.8 and 7.4.
(§3) Viable cell density (VCD) and cell viability were measured off-line using a CEDEX® automated cell counter (Innovatis AG). Culture samples were also analyzed off-line using a BIOPROFILE® 400 Analyzer to monitor pH, pCO2, pO2, glucose, glutamine, glutamate, lactate, and ammonium (Nova Biomedical Corporation). A Protein A HPLC method was used to measure protein titer, which were reported as normalized values.

Experiment [2] concerns aCD137 cells. Description: aCD137 fed-batch culture with antioxidant in basal and/or feed media (shaker flask, 7-liter, 500-liter). Here is the method:
In another embodiment, the dhfr-negative Chinese Hamster Ovary (CHO) cell line DG44 (Invitrogen Corp. Carlsbad, CA) were transfected in order to establish a stable cell line expressing a human IgG4 antibody.
The transfected CHO DG44 cells expressing the antibody was grown in the presence of antioxidants according to the methods of the invention.
as §1, §2, §3

Experiment [3] concerns myostatin cells. The experiment can be described thus: Myostatin cell culture with antioxidant in basal and/or feed media (shake flask, 20-liter reactor). The protocol:
(§4) In another embodiment, the dhfr-negative Chinese Hamster Ovary (CHO) cell line DG44 (Invitrogen Corp. Carlsbad, CA) was transfected in order to establish a stable cell line expressing a recombinant human fusion protein.
(§5) The transfected CHO DG44 cells expressing the fusion protein was grown in the presence of antioxidants according to the methods of the invention.
as §1, §2, §3

Experiment [4] has as its system aCD40L cells. Description: aCD40L cell shake flask culture with catechin in feed media. As to conditions: feed media 154A1 at 0.34 μM, 3.45 μM, 34.45 μM, 344.52 μM; basal media M17IB without catechin; shake flasks. Here is the method:
as §4, §5, §1
A standard fed-batch culture process involved culturing the cells for 14 days with feeding beginning on day 3 at a feeding volume of 3.64% of initial culture volume. All the media used for cultures were chemically defined. […]
Viable cell density (VCD) and cell viability were measured off-line using a CEDEX® automated cell counter (Innovatis AG). Culture samples were also analyzed off-line using a BIOPROFILE® 400 Analyzer to monitor pH, pCO2, pO2, glucose, glutamine, glutamate, lactate, and ammonium (Nova Biomedical Corporation). […]

The mark [5] stands for this setting: 0.0625 mM in feed media M154A1B.
Setting [6] is: feed at all three concentrations (0.0625-1 mM).
Where [7] appears, read: basal media M17IB 0.07 mM and feed media M154A1B 1 mM, shaker flask fed-batch.
Where [8] appears, read: basal media B1 at 0.1 mM, feed media F3.2, 20-liter bioreactor.
Where [9] appears, read: basal media M17IB at 0.1 mM, feed media M154A1B, 7-liter fed-batch.
The mark [10] stands for this setting: feed media F3.2 at 1 mM, basal media B1, shaker flask fed-batch.
[11] abbreviates: basal media B1 at 0.1 mM or feed media F3.2 at 1 mM or both, shake flask.
The mark [12] stands for this setting: basal media at 0.1 mM, 500-liter production run.

In experiment [1] (1 mM in feed media M154A1B), `COc1cc(C2Oc3cc([C@H]4Oc5cc(O)cc(O)c5C(=O)[C@@H]4O)ccc3OC2CO)ccc1O` (stereo partly drawn) [Silibinin, silibinin] showed a VCD % of 99.11% and a Titer % of 144.44%.

For `Oc1ccc(C=Cc2cc(O)cc(O)c2)cc1` [Resveratrol, resveratrol], the values for the VCD % in experiment [1] (setting [5]), in experiment [1] (0.25 mM in feed media M154A1B) and in experiment [1] (1 mM in feed media M154A1B) were 102.53%, 92.24% and 107.48%, respectively. Besides, the Titer % in experiment [1] (setting [5]) is listed as 112.70%; in experiment [1] (0.25 mM in feed media M154A1B), 111.90%; in experiment [1] (1 mM in feed media M154A1B), 144.05%. Further, the protein titer result in experiment [1] (setting [6]) was “increased protein titer”; in experiment [2] (setting [7]), “increased”. In addition, in experiment [2] (setting [7]), the viable cell density result is on record as “increased”.

Take catechin: the results for the VCD % in experiment [1] (setting [5]), in experiment [1] (0.25 mM in feed media M154A1B) and in experiment [1] (1 mM in feed media M154A1B) were 98.66%, 93.52% and 102.01%, respectively. The Titer % turned out to be 111.90% in experiment [1] (setting [5]), 112.70% in experiment [1] (0.25 mM in feed media M154A1B) and 116.67% in experiment [1] (1 mM in feed media M154A1B). Also, the protein titer entry was “increased protein titer” in experiment [1] (setting [6]); “effect on protein titer was maintained” in experiment [3] (setting [8]); “increased” in experiment [2] (setting [7]); “increased” in experiment [2] (setting [9]); “increased” in experiment [2] (setting [10]); “corresponds to an increase in catechin concentration” in experiment [4]. Also, the viable cell density entry was “not changed” in experiment [3] (setting [8]); “increased” in experiment [2] (setting [7]); “increased” in experiment [2] (setting [9]); “maintained” in experiment [2] (setting [10]); “corresponds to an increase in catechin concentration” in experiment [4]. For the same compound, the ammonium formation result in experiment [2] (setting [9]) is “reduced”. In experiment [2] (setting [9]), the lactate formation entry is given as “reduced”.

In experiment [1] (1 mM in feed media M154A1B), `Oc1ccc(-c2[o+]c3cc(O)cc(O)c3cc2O)cc1` [Pelargonidin, pelargonidin] came in with a VCD % of 104.47% and a Titer % of 118.25%.

In experiment [1] (0.25 mM in feed media M154A1B), `O=c1c(O)c(-c2ccc(O)c(O)c2)oc2cc(O)cc(O)c12` [Quercetin, quercetin] registered a VCD % of 119.28% and a Titer % of 111.90%. In experiment [1] (1 mM in feed media M154A1B), this compound yielded a VCD % of 123.11% and a Titer % of 128.97%. In experiment [1] (feed at 0.25 mM and 1 mM), the protein titer result is on record as “increased protein titer”. In addition, in experiment [2] (setting [7]), the protein titer entry was “increased” and the viable cell density result is “increased”.

Turning to `O=C(/C=C/c1ccc(O)c(O)c1)O[C@H](Cc1ccc(O)c(O)c1)C(=O)O` [Rosmarinic acid, rosmarinic acid], the VCD % in experiment [1] (setting [5]) was 129.25%; in experiment [1] (0.25 mM in feed media M154A1B) it was 125.43%; in experiment [1] (1 mM in feed media M154A1B) it was 124.08%. Moreover, the Titer % was determined as 132.14% in experiment [1] (setting [5]), 146.83% in experiment [1] (0.25 mM in feed media M154A1B) and 180.16% in experiment [1] (1 mM in feed media M154A1B). Besides, the protein titer entry is on record as “increased protein titer” in experiment [1] (setting [6]); “increased” in experiment [3] (setting [11]); “effect on protein titer was maintained” in experiment [3] (setting [8]); “increased” in experiment [2] (setting [7]); “increased” in experiment [2] (setting [9]); “increased” in experiment [2] (setting [12]). In addition, the ammonium formation entry in experiment [3] (setting [11]) and in experiment [2] (setting [9]) was “reduced” each time. Moreover, the viable cell density entry in experiment [3] (setting [11]) is given as “increased”; in experiment [3] (setting [8]), “not changed”; in experiment [2] (setting [7]), “increased”; in experiment [2] (setting [9]), “increased”; in experiment [2] (setting [12]) it was “increased”. Moreover, the lactate formation entry in experiment [2] (setting [9]) and in experiment [2] (setting [12]) was “reduced” throughout.

Turning to `O=C(/C=C/c1ccc(O)c(O)c1)O[C@@H]1C[C@](O)(C(=O)O)C[C@@H](O)[C@H]1O` [Chlorogenic acid, chlorogenic acid], the results for the VCD % in experiment [1] (setting [5]), in experiment [1] (0.25 mM in feed media M154A1B) and in experiment [1] (1 mM in feed media M154A1B) were 115.85%, 109.35% and 129.57%, respectively. For the same compound, the Titer % came out at 110.71% in experiment [1] (setting [5]), 109.92% in experiment [1] (0.25 mM in feed media M154A1B) and 151.59% in experiment [1] (1 mM in feed media M154A1B). For the same compound, the protein titer result in experiment [1] (setting [6]) is “increased protein titer”; in experiment [2] (setting [7]), “increased”. Also, the viable cell density entry in experiment [2] (setting [7]) is “increased”.
